Experimental data taken from US6358885B1, “Substituted phenylheterocyclic herbicides” (Mississippi State University, priority 1992, dated 2002).

How the values were obtained:
soybean [1] = test: Test C preemergence/postemergence greenhouse plant response rating 0 to 100; assay type: in vivo, Glycine max; details: Rate 16 g/ha
How it was run: (§1)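 Compounds in non-phytotoxic solvent applied preemergence to sandy loam one day after planting, postemergence at the 1–4 leaf stage, or to ~2.5 cm floodwater over silt loam.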

sorghum = test: as above; assay type: in vivo, Sorghum bicolor; details: for Plant response rating, Sorghum: 0 to 100 scale
How it was run: as §1

soybean [2] = test: Test B preemergence/postemergence greenhouse plant response rating 0 to 10; assay type: in vivo, Glycine max; details: for Plant response rating, Soybean: 0 to 10 scale
How it was run: (§2)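 Test chemicals were sprayed onto freshly planted seed and, concurrently, onto young plants between the one and four leaf stage. After a twelve- to sixteen-day greenhouse period, each species was visually compared with untreated controls.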

wild buckwheat = test: as above; assay type: in vivo, Polygonum convolvulus; details: for Plant response rating, Wild buckwheat: 0 to 10 scale
How it was run: as §2

velvetleaf = test: as above; assay type: in vivo, Abutilon theophrasti; details: for Plant response rating, Velvetleaf: 0 to 10 scale
How it was run: as §2

cheatgrass = test: as above; assay type: in vivo, Bromus secalinus; details: for Plant response rating, Cheatgrass: 0 to 10 scale
How it was run: as §2

purple nutsedge = test: as above; assay type: in vivo, Cyperus rotundus; details: for Plant response rating, Nutsedge: 0 to 10 scale
How it was run: as §2

sugar beet = test: Test C preemergence/postemergence greenhouse plant response rating 0 to 100; assay type: in vivo, Beta vulgaris; details: for Plant response rating, Sugar beet: 0 to 100 scale
How it was run: as §1

cotton = test: Test B preemergence/postemergence greenhouse plant response rating 0 to 10; assay type: in vivo, Gossypium hirsutum; details: for Plant response rating, Cotton: 0 to 10 scale
How it was run: as §2

morningglory = test: Test C preemergence/postemergence greenhouse plant response rating 0 to 100; assay type: in vivo, Ipomoea hederacea; details: for Plant response rating, Morningglory: 0 to 100 scale
How it was run: as §1

rice = test: Test B preemergence/postemergence greenhouse plant response rating 0 to 10; assay type: in vivo, Oryza sativa; details: for Plant response rating, Rice: 0 to 10 scale
How it was run: as §2

With `C#CC(C)Oc1cc(-c2nn3c(c2Br)CCCC3)c(F)cc1Cl` (stereo not shown) [Compound 66] the “Plant response rating (0 to 100), Soybean” value (soybean [1]; POSTEMERGENCE) was 50, the “Plant response rating (0 to 100), Soybean” value (soybean [1]; PREEMERGENCE) was 0 and the “Plant response rating, Sorghum” value (sorghum; POSTEMERGENCE, 62 g/ha) was 50. The “Plant response rating, Sorghum” value (sorghum; POSTEMERGENCE, 250 g/ha) was 60, the “Plant response rating (0 to 100), Sorghum” value (sorghum; POSTEMERGENCE, Rate 4 g/ha) was 30 and the “Plant response rating, Sorghum” value (sorghum; PREEMERGENCE, 250 g/ha) was 30. The “Plant response rating (0 to 100), Sorghum” value (sorghum; PREEMERGENCE, Rate 4 g/ha) was 0, the “Plant response rating (0 to 100), Sorghum” value (sorghum; Rate 16 g/ha, POSTEMERGENCE) was 40 and the “Plant response rating (0 to 100), Sorghum” value (sorghum; Rate 16 g/ha, PREEMERGENCE) was 0. The “Plant response rating, Soybean” value (soybean [2]; POSTEMERGENCE, Rate 50 g/ha) was 6, the “Plant response rating, Soybean” value (soybean [2]; PREEMERGENCE, Rate 50 g/ha) was 0 and the “Plant response rating (0 to 10 scale), Soybean” value (soybean [2]; PREEMERGENCE, Rate 200 g/ha) was 0. For the same compound, the “Plant response rating, Soybean” value (soybean [2]; Rate 200 g/ha, POSTEMERGENCE) was 8, the “Plant response rating, Wild buckwheat” value (wild buckwheat; POSTEMERGENCE, Rate 50 g/ha) was 10 and the “Plant response rating, Wild buckwheat” value (wild buckwheat; PREEMERGENCE, Rate 50 g/ha) was 4. For the same compound, the “Plant response rating (0 to 10 scale), Wild buckwheat” value (wild buckwheat; PREEMERGENCE, Rate 200 g/ha) was 10, the “Plant response rating, Wild buckwheat” value (wild buckwheat; Rate 200 g/ha, POSTEMERGENCE) was 10 and the “Plant response rating, Velvetleaf” value (velvetleaf; POSTEMERGENCE, Rate 50 g/ha) was 10. The “Plant response rating, Velvetleaf” value (velvetleaf; PREEMERGENCE, Rate 50 g/ha) was 6, the “Plant response rating (0 to 10 scale), Velvetleaf” value (velvetleaf; PREEMERGENCE, Rate 200 g/ha) was 9 and the “Plant response rating, Velvetleaf” value (velvetleaf; Rate 200 g/ha, POSTEMERGENCE) was 10. For the same compound, the “Plant response rating, Cheatgrass” value (cheatgrass; POSTEMERGENCE, Rate 50 g/ha) was 3, the “Plant response rating, Cheatgrass” value (cheatgrass; PREEMERGENCE, Rate 50 g/ha) was 1 and the “Plant response rating (0 to 10 scale), Cheatgrass” value (cheatgrass; PREEMERGENCE, Rate 200 g/ha) was 6. The “Plant response rating, Cheatgrass” value (cheatgrass; Rate 200 g/ha, POSTEMERGENCE) was 6, the “Plant response rating, Nutsedge” value (purple nutsedge; POSTEMERGENCE, Rate 50 g/ha) was 2 and the “Plant response rating, Nutsedge” value (purple nutsedge; PREEMERGENCE, Rate 50 g/ha) was 0. The “Plant response rating (0 to 10 scale), Nutsedge” value (purple nutsedge; PREEMERGENCE, Rate 200 g/ha) was 0, the “Plant response rating, Nutsedge” value (purple nutsedge; Rate 200 g/ha, POSTEMERGENCE) was 2 and the “Plant response rating, Sugar beet” value (sugar beet; POSTEMERGENCE, 62 g/ha) was 100. For the same compound, the “Plant response rating, Sugar beet” value (sugar beet; POSTEMERGENCE, 250 g/ha) was 100, the “Plant response rating (0 to 100), Sugar beet” value (sugar beet; POSTEMERGENCE, Rate 4 g/ha) was 80 and the “Plant response rating, Sugar beet” value (sugar beet; PREEMERGENCE, 250 g/ha) was 100. The “Plant response rating (0 to 100), Sugar beet” value (sugar beet; PREEMERGENCE, Rate 4 g/ha) was 0, the “Plant response rating (0 to 100), Sugar beet” value (sugar beet; Rate 16 g/ha, POSTEMERGENCE) was 100 and the “Plant response rating (0 to 100), Sugar beet” value (sugar beet; Rate 16 g/ha, PREEMERGENCE) was 50. The “Plant response rating, Cotton” value (cotton; POSTEMERGENCE, Rate 50 g/ha) was 10, the “Plant response rating, Cotton” value (cotton; PREEMERGENCE, Rate 50 g/ha) was 0 and the “Plant response rating (0 to 10 scale), Cotton” value (cotton; PREEMERGENCE, Rate 200 g/ha) was 0. The “Plant response rating, Cotton” value (cotton; Rate 200 g/ha, POSTEMERGENCE) was 10, the “Plant response rating, Morningglory” value (morningglory; POSTEMERGENCE, 62 g/ha) was 85 and the “Plant response rating, Morningglory” value (morningglory; POSTEMERGENCE, 250 g/ha) was 100. For the same compound, the “Plant response rating (0 to 100), Morningglory” value (morningglory; POSTEMERGENCE, Rate 4 g/ha) was 50, the “Plant response rating, Morningglory” value (morningglory; PREEMERGENCE, 62 g/ha) was 10 and the “Plant response rating, Morningglory” value (morningglory; PREEMERGENCE, 250 g/ha) was 60. For the same compound, the “Plant response rating (0 to 100), Morningglory” value (morningglory; PREEMERGENCE, Rate 4 g/ha) was 0, the “Plant response rating (0 to 100), Morningglory” value (morningglory; Rate 16 g/ha, POSTEMERGENCE) was 50 and the “Plant response rating (0 to 100), Morningglory” value (morningglory; Rate 16 g/ha, PREEMERGENCE) was 0. The “Plant response rating, Rice” value (rice; POSTEMERGENCE, Rate 50 g/ha) was 5, the “Plant response rating, Rice” value (rice; PREEMERGENCE, Rate 50 g/ha) was 0 and the “Plant response rating (0 to 10 scale), Rice” value (rice; PREEMERGENCE, Rate 200 g/ha) was 0. The “Plant response rating, Rice” value (rice; Rate 200 g/ha, POSTEMERGENCE) was 6.
